Measurements from article PMC8281026, “Peptide Based Inhibitors of Protein Binding to the Mitogen-Activated Protein Kinase Docking Groove” (Frontiers in Molecular Biosciences, 2021).
Blank lines part the entries; values can stand above or below the molecule they belong to. *1 amine or outer side, *2 acyl side, *3 side chain or, on linkers, in order; H or OH if unused. Where a SMILES comes first, the peptide text is derived from it. Bridges are numbered along the chain shown (N, C = ends). The star is where a group is joined. Dabcyl = CN(C)c1ccc(N=Nc2ccc(C(=O)*)cc2)cc1; TBMB = c1c(C[*:1])cc(C[*:3])cc1C[*:2]; X1 = O=C(C[*:2])[*:1]

Legend:
ERK2 = biological target: T1, ERK2 (Homo sapiens, UniProt P28482); assay: Fluorescence polarization competitive binding assay, ERK2; conditions: for Kd: competitive FP titration against 50 nM Cf-RHDF (gives Ki, used as proxy of Kd), 20 mM Tris pH 8.0, 100 mM NaCl, 0.05% Brij35, 2 mM TCEP, at least 3 independent measurements, read-out: Kd (µM) ± sd, ERK2
T1 construct: made in house; host or cells: Escherichia coli
T1 sequence (P28482 whole entry, species assumed): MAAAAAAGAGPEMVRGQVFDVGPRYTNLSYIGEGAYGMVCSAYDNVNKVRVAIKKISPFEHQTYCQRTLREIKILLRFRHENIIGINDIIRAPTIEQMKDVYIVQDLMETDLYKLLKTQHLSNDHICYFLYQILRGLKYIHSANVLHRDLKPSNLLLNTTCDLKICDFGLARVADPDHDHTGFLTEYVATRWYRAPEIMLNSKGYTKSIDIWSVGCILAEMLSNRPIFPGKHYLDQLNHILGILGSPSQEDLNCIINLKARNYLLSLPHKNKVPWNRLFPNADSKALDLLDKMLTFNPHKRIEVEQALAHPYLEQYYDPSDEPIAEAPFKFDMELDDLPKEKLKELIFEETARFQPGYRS
Protocol: (§1) ERK2 and p38 proteins used for fluorescence polarization (FP) measurements were recombinantly expressed in Escherichia coli and purified according to Garai et al. The purified and concentrated proteins were subjected to fluorescence polarization based binding measurements ([Garai et al., 2012]) using 50 nM Cf-labeled Cf-RHDF (Cf-SLQRKKPPWLKLDIPSC) and the data was analyzed using OriginPro. For direct measurements the concentration of ERK2 and p38 protein was increased, and for competitive measurements the protein-labeled peptide complex at 60–80% complex formation was titrated with increasing concentration of unlabeled peptide and the amount of the protein-labeled peptide complex (fraction bound) was determined using Cytation 3 (BioTek Instruments) plate reader in 384-well black plates. The direct measurement gives the Kd between the labeled peptide and the MAPK, while the competitive titration experiment with the unlabeled peptide gives the Ki for the unlabeled peptide competing off the labeled peptide, which is a good proxy for the binding affinity of the unlabeled peptide to the protein. All of the FP measurements were performed in assay buffer: 20 mM Tris (pH 8.0), 100 mM NaCl, 0.05% Brij35, and 2 mM TCEP. Fraction bound of the labeled ligand was calculated based on direct binding and competitive binding equations described in ([Roehrl et al., 2004]; [Simon et al., 2020]). The Kd and Ki values were obtained by fitting the FP data, measured in triplicates, to a direct binding equation or to a competitive binding equation using the OriginPro software.

p38α = biological target: T2, p38α (Homo sapiens, UniProt Q16539); assay: Fluorescence polarization competitive binding assay, p38; conditions: competitive FP titration against 50 nM Cf-RHDF (gives Ki, used as proxy of Kd); 20 mM Tris pH 8.0, 100 mM NaCl, 0.05% Brij35, 2 mM TCEP; at least 3 independent measurements; read-out: Kd (µM) ± sd, p38
T2 construct: made in house; host or cells: Escherichia coli
T2 sequence (Q16539 whole entry): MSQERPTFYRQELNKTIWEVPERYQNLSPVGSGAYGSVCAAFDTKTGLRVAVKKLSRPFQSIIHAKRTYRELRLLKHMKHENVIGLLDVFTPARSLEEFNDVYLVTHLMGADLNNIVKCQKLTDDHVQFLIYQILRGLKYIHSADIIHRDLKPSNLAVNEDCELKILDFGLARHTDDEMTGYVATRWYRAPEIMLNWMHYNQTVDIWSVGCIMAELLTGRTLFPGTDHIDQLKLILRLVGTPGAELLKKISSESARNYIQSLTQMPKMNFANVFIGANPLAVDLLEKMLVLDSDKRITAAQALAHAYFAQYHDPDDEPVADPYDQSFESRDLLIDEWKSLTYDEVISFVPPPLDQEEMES
Protocol: as §1

active ERK2 (pp-ERK2) = active ERK2 (pp-ERK2) (Homo sapiens, UniProt P28482); assay: In vitro MAPK activity assay (Nanobit luciferase protein fragment complementation), ERK2; type: biochemical; conditions: for EC50: 1 nM pp-ERK2, 2 mM ATP, 50 mM HEPES pH 7.5, initial rates, luminescence, at least 3 independent measurements; for EC50 increase relative to peptide 8: ratio of EC50 values, compared with peptide 8
Chain of active ERK2 (pp-ERK2) (P28482 whole entry, the tested form may be a part): as the sequence (P28482 whole entry, species assumed) above
Protocol: (§2) In order to determine the inhibitory effect of RHDF-peptides, we used a protein fragment complementation based assay. […] Upon MAPK activity, these two proteins bind and form the active luciferase enzyme oxidizing its substrate (coelenterazine) and ultimately giving some luminescent signal. The initial rates of the reactions were calculated and were compared for the applied inhibitor’s concentration, and then EC50 values were determined using dose response fitting (OriginPro) (see in Supplementary Figure S26). Reactions were carried out in a buffer of 50 mM HEPES, pH 7.5, 100 mM NaCl, 5 mM MgCl2, 0.05% IGEPAL, 50 μM Coelenterazine h, 5% glycerol, 2 mM DTT, 1mM TCEP, 0.5 mg/ml BSA containing 1 nM active ERK2 (pp-ERK2) or p38 (pp-p38α) and were started by the addition of 2 mM ATP. Luminescence was measured using a luminescence plate reader (Cytation 3, BioTek) in white 96-well plates.

p38 (pp-p38α) = p38 (pp-p38α) (Homo sapiens, UniProt Q16539); assay: In vitro MAPK activity assay (Nanobit luciferase protein fragment complementation), p38; type: biochemical; conditions: 1 nM pp-p38α, 2 mM ATP, 50 mM HEPES pH 7.5; initial rates, luminescence; at least 3 independent measurements
Chain of p38 (pp-p38α) (Q16539 whole entry, the tested form may be a part): as the sequence (Q16539 whole entry) above
Protocol: as §2

HEK-293T cells [1] = assay: Cellular uptake by fluorescence microscopy; type: cell-based; conditions: for cellular uptake: data is not shown; for internalization into HEK-293T cells: fluorescence microscopy, serum-free medium, 37 °C, up to 3 h, Figure 1
Protocol: (§3) The cellular uptake of the fluorescent labeled peptide into HEK-293T cells were analyzed by fluorescence microscopy (Cytation 3, BioTek Instruments) and two peptides were further examined by confocal laser scanning microscopy (Zeiss LSM-710 system). Cells were incubated with peptides in serum-free medium (DMEM) for 3 h at 37 °C and then washed twice with 200 μl of serum-free medium before analyzing.

HEK-293T cells [2] = assay: Intracellular distribution by confocal laser scanning microscopy; type: cell-based; conditions: 10 and 20 µM, 3 h
Protocol: as §3

Molecule: H-RRRPPWLRLDIRR-NH2 [compound 8, H-RRRPPWLRLDIRR-NH 2]
Kd (p38α): 1.4 ± 0.3 µM | EC50 (active ERK2 (pp-ERK2)): 3.5 µM | EC50 (p38 (pp-p38α)): 1.3 µM

Molecule: H-RRPPWLRLDI-NH2 [compound 5, H-RRPPWLRLDI-NH 2]
cellular uptake (HEK-293T cells [1]): poor

Molecule: Cf-RRPPWLRLDIRR-NH 2 [compound 7]
internalization into HEK-293T cells (HEK-293T cells [1]): time and concentration dependent internalization

Molecule: H-RRPPWLRLDIRR-NH2 [compound 6, H-RRPPWLRLDIRR-NH 2]
binding enhancement by extension of the C-terminus by two Arg (ERK2; ERK2 Kd, compared with peptide 5): 3.5 times | EC50 (active ERK2 (pp-ERK2)): 12.9 µM | EC50 increase relative to peptide 8 (active ERK2 (pp-ERK2)): 3.7 times | EC50 (p38 (pp-p38α)): 3.7 µM

Molecule: CC(C)C[C@@H]1NC(=O)[C@H](CCCNC(=N)N)NC(=O)[C@H](CC(C)C)NC(=O)[C@@H](NC(=O)[C@H](Cc2c[nH]c3ccccc23)NC(=O)[C@@H]2CCCN2C(=O)[C@@H]2CCCN2C(=O)[C@H](CCCNC(=N)N)NC(=O)[C@H](CCCNC(=N)N)NC(=O)[C@H](CCCNC(=N)N)NC(=O)c2ccc(N=Nc3ccc(N(C)C)cc3)cc2)CCCCNC(=O)CSC[C@@H](C(N)=O)NC(=O)[C@H](CCCNC(=N)N)NC(=O)[C@H](CCCNC(=N)N)NC(=O)[C@H](CC(=O)O)NC1=O [compound 12] (Dabcyl-RRRPPWKLRLDRRC-NH2; linker 7-14 via X1)
Kd (ERK2): 4.1 ± 0.3 µM | Kd (p38α): 1.7 ± 0.4 µM

Molecule: CC[C@H](C)[C@H](NC(=O)[C@H](CC(=O)O)NC(=O)[C@H](CC(C)C)NC(=O)[C@H](CCCCN)NC(=O)[C@H](CC(C)C)NC(=O)[C@H](Cc1c[nH]c2ccccc12)NC(=O)[C@@H]1CCCN1C(=O)[C@@H]1CCCN1C(=O)[C@H](CCCCN)NC(=O)[C@H](CCCCN)NC(=O)[C@H](CCCNC(=N)N)NC(=O)[C@H](CCC(N)=O)NC(=O)[C@H](CC(C)C)NC(=O)[C@@H](N)CO)C(=O)N1CCC[C@H]1C(=O)N[C@@H](CO)C(=O)N[C@@H](CS)C(N)=O [compound 1, H-SLQRKKPPWLKLDIPSC-NH 2]
cellular uptake (HEK-293T cells [1]): poor

Molecule: Cf- RRRPPWLRLDIRR-NH 2 [compound 9]
internalization into HEK-293T cells (HEK-293T cells [1]): time and concentration dependent internalization | intracellular distribution (HEK-293T cells [2]): punctuated

Molecule: H-KKPPWLKLDI-NH2 [compound 4, H-KKPPWLKLDI-NH 2]
binding decrease relative to the original peptide (ERK2; ERK2 Kd, compared with original peptide 1): 8.3 times | cellular uptake (HEK-293T cells [1]): poor

Molecule: CC[C@H](C)[C@H](NC(=O)[C@H](CC(=O)O)NC(=O)[C@H](CC(C)C)NC(=O)[C@H](CCCNC(=N)N)NC(=O)[C@H](CC(C)C)NC(=O)[C@H](Cc1c[nH]c2ccccc12)NC(=O)[C@@H]1CCCN1C(=O)[C@@H]1CCCN1C(=O)[C@H](CCCNC(=N)N)NC(=O)[C@H](CCCNC(=N)N)NC(=O)[C@H](CCCNC(=N)N)NC(=O)c1ccc(/N=N/c2ccc(N(C)C)cc2)cc1)C(=O)N[C@@H](CCCNC(=N)N)C(=O)N[C@@H](CCCNC(=N)N)C(=O)N[C@@H](CCCCN)C(N)=O [compound 10, Dabcyl-RRRPPWLRLDIRRK-NH 2]
EC50 increase relative to peptide 8 (active ERK2 (pp-ERK2)): 2.4 times

More lines, now with the values ahead:

Kd (ERK2): 0.9 ± 0.2 µM | Kd (p38α): 1.4 ± 0.4 µM
Molecule: CC[C@H](C)[C@@H]1NC(=O)[C@H](CC(=O)O)NC(=O)[C@H](CC(C)C)NC(=O)[C@H](CCCNC(=N)N)NC(=O)[C@H](CC(C)C)NC(=O)[C@@H]2CSCc3cc(cc(c3)CSC[C@H](NC(=O)[C@H](CCCNC(=N)N)NC(=O)[C@H](CCCNC(=N)N)NC(=O)[C@H](CCCNC(=N)N)NC(=O)c3ccc(N=Nc4ccc(N(C)C)cc4)cc3)C(=O)N3CCC[C@H]3C(=O)N3CCC[C@H]3C(=O)N[C@@H](Cc3c[nH]c4ccccc34)C(=O)N2)CSC[C@@H](C(N)=O)NC(=O)[C@H](CCCNC(=N)N)NC(=O)[C@H](CCCNC(=N)N)NC1=O [compound 16] (Dabcyl-RRRCPPWCLRLDIRRC-NH2; linker 4-8-16 via TBMB)

Kd (ERK2): 1 ± 0.2 µM | Kd (p38α): 1 ± 0.7 µM
Molecule: CC(C)C[C@@H]1NC(=O)[C@H](CCCNC(=N)N)NC(=O)[C@H](CC(C)C)NC(=O)[C@H](Cc2c[nH]c3ccccc23)NC(=O)[C@@H]2CCCN2C(=O)[C@@H]2CCCN2C(=O)[C@@H](NC(=O)[C@H](CCCNC(=N)N)NC(=O)[C@H](CCCNC(=N)N)NC(=O)[C@H](CCCNC(=N)N)NC(=O)c2ccc(N=Nc3ccc(N(C)C)cc3)cc2)CCCCNC(=O)CSC[C@@H](C(N)=O)NC(=O)[C@H](CCCNC(=N)N)NC(=O)[C@H](CCCNC(=N)N)NC(=O)[C@H](CC(=O)O)NC1=O [compound 13] (Dabcyl-RRRKPPWLRLDRRC-NH2; linker 4-14 via X1)

Kd (ERK2): 5.1 ± 0.4 µM | Kd (p38α): 2.1 ± 0.6 µM
Molecule: CC(C)C[C@@H]1NC(=O)[C@H](CCCNC(=N)N)NC(=O)[C@H](CC(C)C)NC(=O)[C@H](Cc2c[nH]c3ccccc23)NC(=O)[C@@H]2CCCN2C(=O)[C@@H]2CCCN2C(=O)[C@H](CCCNC(=N)N)NC(=O)[C@H](CCCNC(=N)N)NC(=O)[C@H](CCCNC(=N)N)NC(=O)[C@@H](NC(=O)c2ccc(N=Nc3ccc(N(C)C)cc3)cc2)CCCCNC(=O)CSC[C@@H](C(N)=O)NC(=O)[C@H](CCCNC(=N)N)NC(=O)[C@H](CCCNC(=N)N)NC(=O)[C@H](CC(=O)O)NC1=O [compound 14] (Dabcyl-KRRRPPWLRLDRRC-NH2; linker 1-14 via X1)

Kd (ERK2): 1.5 ± 0.3 µM | Kd (p38α): 1.2 ± 0.6 µM
Molecule: CC[C@H](C)[C@@H]1NC(=O)[C@H](CC(=O)O)NC(=O)[C@H](CC(C)C)NC(=O)[C@H](CCCNC(=N)N)NC(=O)[C@H](CC(C)C)NC(=O)[C@H](Cc2c[nH]c3ccccc23)NC(=O)[C@@H]2CCCN2C(=O)[C@@H]2CCCN2C(=O)[C@@H](NC(=O)[C@H](CCCNC(=N)N)NC(=O)[C@H](CCCNC(=N)N)NC(=O)[C@H](CCCNC(=N)N)NC(=O)c2ccc(N=Nc3ccc(N(C)C)cc3)cc2)CCCCNC(=O)CSC[C@@H](C(N)=O)NC(=O)[C@H](CCCNC(=N)N)NC(=O)[C@H](CCCNC(=N)N)NC1=O [compound 15] (Dabcyl-RRRKPPWLRLDIRRC-NH2; linker 4-15 via X1)

Kd (ERK2): 4.5 ± 0.6 µM | Kd (p38α): 3.2 ± 0.7 µM
Molecule: CC(C)C[C@@H]1NC(=O)[C@H](CCCNC(=N)N)NC(=O)[C@H](CC(C)C)NC(=O)[C@@H]2CSCc3cc(cc(c3)CSC[C@H](NC(=O)[C@H](CCCNC(=N)N)NC(=O)[C@H](CCCNC(=N)N)NC(=O)[C@H](CCCNC(=N)N)NC(=O)c3ccc(N=Nc4ccc(N(C)C)cc4)cc3)C(=O)N3CCC[C@H]3C(=O)N3CCC[C@H]3C(=O)N[C@@H](Cc3c[nH]c4ccccc34)C(=O)N2)CSC[C@@H](C(N)=O)NC(=O)[C@H](CCCNC(=N)N)NC(=O)[C@H](CCCNC(=N)N)NC(=O)[C@H](CC(=O)O)NC1=O [compound 17] (Dabcyl-RRRCPPWCLRLDRRC-NH2; linker 4-8-15 via TBMB)
